Consider one compound from patent US9120793B2, “Triazolo-pyridine compound” (Eli Lilly and Company, priority 2013, dated 2015).

The target of one experiment is T1, human GPR-40 (hGPR-40) (Homo sapiens, UniProt O14842).
T1 construct: expressed in transfected cells; host or cells: HEK293 (membranes)
The experiment can be described thus: Radioligand competition binding, in vitro binding affinity to GPR-40. As to conditions: 5 nM [3H] TAK-875; membranes of HEK293 cells overexpressing hGPR-40; Cheng-Prusoff. An excerpt:
Competition curves are plotted as the percent specific inhibition versus concentration of compound and analyzed using a four parameter nonlinear regression fit with variable slope. […] See Cheng, Y. and Prusoff, W. H. (1973) “Relationship between the inhibition constant (Ki) and the concentration of inhibitor which causes 50 per cent inhibition (IC50) of an enzymatic reaction,” Biochem Pharmacol 22(23):3099-3108. […] (Mean±SEM; SEM=standard error of the mean.).
On the technique in general: Loss of bound radioactivity is the signal in a displacement assay; it reports binding, not function.

A further experiment deals with T2, PPARα (Homo sapiens, UniProt Q07869).
T2 construct: expressed in transfected cells; host or cells: CV1 (African green monkey kidney)
T2 sequence (Q07869 239-466 limits assumed): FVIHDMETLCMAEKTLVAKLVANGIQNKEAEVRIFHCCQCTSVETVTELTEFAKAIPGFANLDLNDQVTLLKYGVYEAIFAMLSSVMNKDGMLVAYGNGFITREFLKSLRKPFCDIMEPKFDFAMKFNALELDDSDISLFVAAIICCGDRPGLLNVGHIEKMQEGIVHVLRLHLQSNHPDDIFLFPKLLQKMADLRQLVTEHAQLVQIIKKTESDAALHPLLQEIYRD
In words: PPARα reporter (CTF)/functional assay in CV1 cells. The format is cell-based. As to conditions: examined up to 10 μM; efficacy <20% considered negative. An excerpt:
Because GPR-40 is known to be activated by ligands to PPARγ, exemplified compounds are examined in PPARα, PPARδ, and PPARγ reporter assays to determine the selectivity of an exemplified compound. CV1 cells, which are derived from the renal tissue of an African green monkey, are transfected with various receptor and reporter plasmids using Fugene. For the PPARα and PPARδ assays, a reporter plasmid containing five tandem copies of the yeast transcription protein Gal4 response element, cloned upstream of a firefly luciferase gene driven by the major late promoter of adenovirus, is transfected together with a Simian Virus 40 (SV40) driven plasmid constitutively expressing a hybrid protein containing the Gal4 DNA binding domain (DBD), and either the PPARα or PPARδ ligand binding domain. For the PPARγ assay, plasmids encoding PPARγ and RXRα, both driven by a cytomegalovirus (CMV) promoter are transfected together with a plasmid containing luciferase reporter cDNA driven by the TK promoter and a receptor response element (2×PPRE). […] After 24 hours incubation with compound, cells are lysed and luciferase activity is determined as a measure of receptor activation by luminescence. […] The maximum percent stimulation is determined versus maximum stimulation obtained with 10 μM of an appropriate PPAR agonist reference compound. […]

Another experiment deals with T3, human GPR-40 (Homo sapiens, UniProt O14842).
T3 construct: expressed in transfected cells; host or cells: HEK293
T3 sequence (O14842 whole entry): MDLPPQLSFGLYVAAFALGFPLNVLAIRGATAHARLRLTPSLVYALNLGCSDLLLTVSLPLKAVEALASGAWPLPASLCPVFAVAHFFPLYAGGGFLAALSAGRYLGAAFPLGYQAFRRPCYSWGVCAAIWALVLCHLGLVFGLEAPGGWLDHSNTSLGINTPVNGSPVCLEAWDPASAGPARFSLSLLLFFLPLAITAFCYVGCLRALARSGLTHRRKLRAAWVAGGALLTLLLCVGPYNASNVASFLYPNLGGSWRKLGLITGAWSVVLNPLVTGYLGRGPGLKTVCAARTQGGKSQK
In words: Calcium Flux Primary Assay. The format is cell-based. The method, then: HEK293 cells over expressing the human GPR-40 cDNA maintained in Dulbecco's modified Eagle's medium with F12 medium in 3:1 ratio supplemented with 10% FBS and 800 μg/ml geneticin at 37° C. and 5% CO2 are employed for the study. Agonist assays are performed using a Calcium 4 Dye assay kit (Molecular Devices) in the presence or absence of 0.1% fatty acid free BSA in the assay buffer (1×HBSS (Hank's Balanced Salt Solution) & 20 mM HEPES (4-(2-hydroxyethyl)-1-piperazineethanesulfonic acid). Receptor activation is measured as an increase in intracellular calcium using the Fluorometric Imaging Plate Reader (FLIPR). Maximum change in fluorescence over the base line is used to determine the agonist response. The EC50 value of the compound is calculated using Excel Fit software (version 4; IDBS) by plotting concentration vs relative fluorescence units (RFUs). […] (Mean±SEM; SEM=standard error of the mean.)

T1 sequence (O14842 whole entry): as above

The term Ki denotes the dissociation constant of the complex between target and ligand, obtained from inhibition or displacement. Low readings indicate a stronger hold on the target, high ones a looser hold on the target. The EC50 is the concentration needed to bring the measured effect to its halfway point. At human GPR-40 (hGPR-40), `CC#C[C@@H](CC(=O)O)c1ccc(OCc2ccc3nc(-c4c(C)cccc4C)nn3c2)cc1` [Example 1, (3S)-3-[4-[[2-(2,6-Dimethylphenyl)-[1,2,4]triazolo[1,5-a]pyridin-6-yl]methoxy]phenyl]hex-4-ynoic acid] returned a Ki of 0.0149 µM. In addition, the “functional activation of PPARα” value at PPARα is “No functional activation”. Moreover, the EC50 on human GPR-40 (HEK293 cells over expressing human GPR-40, intracellular calcium, FLIPR) worked out at 0.119 µM. Moreover, at human GPR-40 (maximal response compared to natural ligand linoleic acid), the efficacy amounted to 76%.
